The values below come from patent publication US20100280987A1, “METHODS AND GENE EXPRESSION SIGNATURE FOR ASSESSING RAS PATHWAY ACTIVITY” (priority 2009, published 2010).

Molecules are shown by their SMILES. Entries after “also recorded” stand apart in the source; their conditions may differ.

Series [1] has as its system p53 loss of function and KRas mutant lung tumors (7450 KP-model). In words: tumor progression in 7450 KP-model mice. The class given is in vivo. The conditions noted are these: 7450 KP mice, after 4 weeks of treatment (data not shown).
Series [2] concerns MEK1 and MEK2. The following applies: purified enzyme, read-out: in vitro IC50 against purified enzyme; cited from earlier work.
In series [3] the test system is RAS pathway signature. In words: RAS pathway signature score in tumors after treatment in vivo. The conditions noted are these: 7450 KP-model mice, 150 mpk, three doses 10 hours apart, tumors 4 hours post last dose; 150 mg/kg. The procedure: As a first step in the analysis of the RAS signatures, we assessed the coherency of the signatures across four cell line panels from lung, colon, breast, and lymphoid malignancies. The purpose of coherence analysis is to show the statistical significance of the difference between the “Up” and “Down” arms of the signature in a new dataset. Two correlation coefficients were calculated for all of the genes in both the Up and Down arms. First, the correlation between each gene in the Up arm and the average of all genes in the Up arm is calculated. Second, the anticorrelation between each gene in the Up arm and the average of all genes in the Down arm is calculated. This is repeated for genes in the Down arm. […] A Fisher exact test is calculated for correlation within and between arms of the signature to assess the significance of signature coherence in a new dataset. […] RAS pathway activity (or regulation) is summarized into a RAS signature score, which is calculated as: (mean expression of Up genes (Table 2a))—(mean expression of Down genes (Table 2b)). […]
The 7450 KP mice were treated with a small molecule MEK inhibitor, AZD6244 (Ohren et al., 2004, Nat. Struct. Mol. Biol. 11:119201197). […] RAS signature pathway signatures scores were calculated as previously described for each time point and plotted (FIG. 18).

A short description of series [4]: blood concentration of AZD6244 post-dose in mice. The class given is in vivo, CD-1 nude mice.

Usually IC50 stands for the concentration needed to halve the response being measured. For `Cn1cnc2c(F)c(Nc3ccc(Br)cc3Cl)c(C(=O)NOCCO)cc21` [AZD6244], the “tumor progression compared vehicle” value in series [1] is on record as “significantly halted tumor progression”. In addition, the IC50 in series [2] is 10 to 14 nM. The “RAS pathway signature score in vivo at 4 hours post-dose” value in series [3] was “down regulated; also recorded: down-regulated”. For the same molecule, the clearance post-dose entry in series [4] (CD-1 nude mice) is reported as “cleared quickly”. Further, in series [4] (in vivo), the half-life in vivo result is reported as “short half-life”. Also, the “blood concentration after the peak” value in series [4] (mice (CD-1 nude mice), blood) is recorded as “decreased rapidly”.
